Where a name gives a salt, the structure may show the parent alone.
Legend:
[1] = molecular target: T1, Recombinant human LSD1 (172–852 aa) (Homo sapiens, UniProt O60341); assay: biochemical
Description: (§1) LSD1 or LSD2 enzyme inhibition assay was performed with Lance Ultra LSD1 Histone H3-Lysine 4 Demethylase Assay kit (Perkin Elmer) according to the manufacturer's protocol. […] The test was carried out in triplicate. And the IC50 data was calculated using the software GraphPad Prism 5, and chosen the equation “sigmoidal dose–response (variable slope)” for curve fitting.

[2] = molecular target: T1, Recombinant human LSD1 (172–852 aa); conditions: for fold more potent at LSD1 than 8a and 8b, respectively: 21a vs 8a, 21b vs 8b; for fold less potent at LSD1 than the unsubstituted derivatives 21a and 21b: 23a, 23b vs 21a; for fold reduction in LSD1 inhibitory potency vs 23a, 23b: 24a, 24b vs 23a; for fold reduction in LSD1 inhibitory potency vs 28a, 28b: 29a, 29b vs 28a; for LSD1 IC50 level in words: potency range in words
Description: as §1

MAO-B = molecular target: T2, MAO-B (Homo sapiens, UniProt P27338); assay: biochemical
T2 sequence (P27338 1-520): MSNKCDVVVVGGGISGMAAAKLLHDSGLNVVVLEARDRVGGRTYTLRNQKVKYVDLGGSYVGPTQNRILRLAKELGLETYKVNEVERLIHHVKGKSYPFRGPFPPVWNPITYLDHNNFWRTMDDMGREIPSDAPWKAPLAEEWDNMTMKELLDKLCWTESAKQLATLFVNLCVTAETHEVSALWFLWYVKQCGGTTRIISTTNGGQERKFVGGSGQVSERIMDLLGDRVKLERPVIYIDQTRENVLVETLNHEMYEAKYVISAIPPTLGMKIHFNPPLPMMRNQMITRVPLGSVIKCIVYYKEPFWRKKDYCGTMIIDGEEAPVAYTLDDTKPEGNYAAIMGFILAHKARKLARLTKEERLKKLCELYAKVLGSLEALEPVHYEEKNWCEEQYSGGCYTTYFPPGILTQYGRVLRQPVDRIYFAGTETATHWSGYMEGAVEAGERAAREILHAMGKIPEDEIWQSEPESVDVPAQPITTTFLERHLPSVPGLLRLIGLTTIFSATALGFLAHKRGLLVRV
Description: (§2) MAO-A and MAO-B enzymes were purchased from Sigma-Aldrich and the inhibition assay was tested with Promega MAO-Glo™ Assay kit according to the manufacturer's protocol. The luminescent signals were detected using Envision (PerkinElmer). The test was carried out in triplicate. And the IC50 data was calculated using the software GraphPad Prism 5, and chosen the equation “sigmoidal dose–response (variable slope)” for curve fitting.

MAO-A [3] = molecular target: T3, MAO-A (Homo sapiens, UniProt P21397); assay: biochemical
T3 sequence (P21397 1-527): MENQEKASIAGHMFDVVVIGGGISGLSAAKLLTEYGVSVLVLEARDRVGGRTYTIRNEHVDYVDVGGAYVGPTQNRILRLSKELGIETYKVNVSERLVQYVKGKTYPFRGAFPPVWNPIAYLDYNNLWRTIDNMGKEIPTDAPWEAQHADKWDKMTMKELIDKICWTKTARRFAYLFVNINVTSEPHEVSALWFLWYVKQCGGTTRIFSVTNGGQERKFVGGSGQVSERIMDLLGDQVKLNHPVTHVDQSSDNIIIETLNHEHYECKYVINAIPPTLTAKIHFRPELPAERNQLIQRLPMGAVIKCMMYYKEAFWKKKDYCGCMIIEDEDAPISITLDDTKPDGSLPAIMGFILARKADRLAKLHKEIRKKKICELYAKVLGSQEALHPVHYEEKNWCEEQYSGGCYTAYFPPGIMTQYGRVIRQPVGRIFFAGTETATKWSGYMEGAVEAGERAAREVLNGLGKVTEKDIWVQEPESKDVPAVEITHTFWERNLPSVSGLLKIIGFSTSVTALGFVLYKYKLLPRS
Description: as §2

full-length LSD2 = molecular target: T4, full-length LSD2 (Homo sapiens, UniProt Q8NB78); assay: LSD2 inhibition assay (Lance Ultra kit, TR-FRET); type: biochemical
T4 sequence (Q8NB78 1-822): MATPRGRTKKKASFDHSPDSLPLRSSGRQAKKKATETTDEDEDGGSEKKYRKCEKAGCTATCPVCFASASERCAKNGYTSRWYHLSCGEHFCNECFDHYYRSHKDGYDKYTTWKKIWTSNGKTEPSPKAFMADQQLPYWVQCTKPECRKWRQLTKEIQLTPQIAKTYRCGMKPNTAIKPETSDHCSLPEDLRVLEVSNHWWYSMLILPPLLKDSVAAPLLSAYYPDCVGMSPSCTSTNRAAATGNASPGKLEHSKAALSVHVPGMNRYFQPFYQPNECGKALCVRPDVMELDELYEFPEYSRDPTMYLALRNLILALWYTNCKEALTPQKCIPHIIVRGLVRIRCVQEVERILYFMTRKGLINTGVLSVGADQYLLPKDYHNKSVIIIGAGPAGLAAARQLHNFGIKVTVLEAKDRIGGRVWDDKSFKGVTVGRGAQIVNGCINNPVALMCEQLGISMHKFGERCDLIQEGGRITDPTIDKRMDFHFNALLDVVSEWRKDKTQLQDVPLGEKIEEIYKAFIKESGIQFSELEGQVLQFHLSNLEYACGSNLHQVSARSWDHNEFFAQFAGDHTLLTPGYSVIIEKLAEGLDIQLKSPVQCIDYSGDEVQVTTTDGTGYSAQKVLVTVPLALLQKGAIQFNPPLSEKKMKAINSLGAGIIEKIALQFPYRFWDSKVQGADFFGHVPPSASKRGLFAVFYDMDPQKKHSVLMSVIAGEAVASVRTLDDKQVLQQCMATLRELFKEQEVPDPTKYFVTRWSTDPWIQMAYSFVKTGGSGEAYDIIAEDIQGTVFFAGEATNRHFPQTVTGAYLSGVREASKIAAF
Description: as §1

MAO-A [4] = molecular target: T3, MAO-A; conditions: IC50 values for LSD1 vs. MAO-A
Description: as §2

[5] = MAO-B, IC50, Table 1, mean ± SEM, eight-point experiments, three independent experiments
[6] = MAO-A, IC50, Table 1, mean ± SEM, eight-point experiments, three independent experiments

| SMILES | IC50 [1] | IC50 (MAO-B; [5]) | IC50 (MAO-A [3]; [6]) | IC50 (full-length LSD2) | other results |
| --- | --- | --- | --- | --- | --- |
| c1cncc(CN[C@@H]2CC23CCc2ccccc23)c1 (mixture of isomers) [Compound 21a, (2R)-N-(Pyridin-3-ylmethyl)-2′,3′-dihydrospiro[cyclopropane-1,1′-inden]-2-amine] | 17 ± 3 nM | 15000 ± 1000 nM | 10800 ± 1100 nM | – | fold more potent at LSD1 than 8a and 8b, respectively [2]: 10 fold |
| c1cncc(CN[C@H]2CC23CCc2ccccc23)c1 (mixture of isomers) [Compound 21b, (2S)-N-(Pyridin-3-ylmethyl)-2′,3′-dihydrospiro[cyclopropane-1,1′-inden]-2-amine] | 20 ± 3 nM | 28000 ± 6000 nM | 6000 ± 1100 nM | – | fold more potent at LSD1 than 8a and 8b, respectively [2]: 39 fold |
| Fc1ncccc1CN[C@@H]1CC12CCc1ccccc12 (mixture of isomers) [Compound 23a, (2R)-N-((2-Fluoropyridin-3-yl)methyl)-2′,3′-dihydrospiro[cyclopropane-1,1′-inden]-2-amine] | 64 ± 1 nM | 8200 ± 1500 nM | 9700 ± 1500 nM | 13000 ± 3000 nM | fold less potent at LSD1 than the unsubstituted derivatives 21a and 21b [2]: approximately 4 fold |
| c1ccc(CN[C@H]2CC23CCc2ccccc23)cc1 (stereo in doubt) [Compound 13b, (2S)-N-Benzyl-2′,3′-dihydrospiro[cyclopropane-1,1′-inden]-2-amine] | 110 ± 20 nM | 5100 ± 100 nM | 130 ± 10 nM | 2000 ± 200 nM | selectivity index LSD1 vs. MAO-A in words (MAO-A [4]): low |
| COc1ccc(F)cc1CN[C@@H]1CC12CCc1ccccc12 (stereo in doubt) [Compound 17a, (2R)-N-(5-Fluoro-2-methoxybenzyl)-2′,3′-dihydrospiro[cyclopropane-1,1′-inden]-2-amine] | 6.6 ± 1.5 nM | 2300 ± 400 nM | 920 ± 180 nM | 800 ± 270 nM | – |
| COc1ccc(F)cc1CN[C@H]1CC12CCc1ccccc12 (stereo in doubt) [Compound 17b, (2S)-N-(5-Fluoro-2-methoxybenzyl)-2′,3′-dihydrospiro[cyclopropane-1,1′-inden]-2-amine] | 17 ± 3 nM | 27000 ± 4000 nM | 120 ± 10 nM | 1700 ± 500 nM | – |
| COc1cc(F)ccc1CN[C@@H]1CC12CCc1ccccc12 (stereo in doubt) [Compound 18a, (2R)-N-(4-Fluoro-2-methoxybenzyl)-2′,3′-dihydrospiro[cyclopropane-1,1′-inden]-2-amine] | 7.1 ± 1.3 nM | 8700 ± 1100 nM | 2200 ± 700 nM | 660 ± 60 nM | – |
| COc1ncccc1CN[C@@H]1CC12CCc1ccccc12 (stereo in doubt) [Compound 22a, (2R)-N-((2-Methoxypyridin-3-yl)methyl)-2′,3′-dihydrospiro[cyclopropane-1,1′-inden]-2-amine] | 32 ± 6 nM | 47000 ± 5000 nM | > 100000 nM | – | fold less potent at LSD1 than the cis-isomer ([2]; 22a vs 22b): 3 fold |
| COc1ncccc1CN[C@H]1CC12CCc1ccccc12 (stereo in doubt) [Compound 22b, (2S)-N-((2-Methoxypyridin-3-yl)methyl)-2′,3′-dihydrospiro[cyclopropane-1,1′-inden]-2-amine] | 10 ± 5 nM | 68000 ± 8000 nM | > 100000 nM | – | – |
| Fc1ncccc1CN[C@H]1CC12CCc1ccccc12 (stereo in doubt) [Compound 23b, (2S)-N-((2-Fluoropyridin-3-yl)methyl)-2′,3′-dihydrospiro[cyclopropane-1,1′-inden]-2-amine] | 70 ± 3 nM | 29000 ± 4000 nM | 9800 ± 800 nM | 8700 ± 800 nM | fold less potent at LSD1 than the unsubstituted derivatives 21a and 21b [2]: approximately 4 fold |
| Fc1cccnc1CN[C@@H]1CC12CCc1ccccc12 (stereo in doubt) [Compound 24a, (2R)-N-((3-Fluoropyridin-2-yl)methyl)-2′,3′-dihydrospiro[cyclopropane-1,1′-inden]-2-amine] | 250 ± 10 nM | – | – | – | fold reduction in LSD1 inhibitory potency vs 23a, 23b [2]: ≥ 4 fold |
| Fc1cccnc1CN[C@H]1CC12CCc1ccccc12 (stereo in doubt) [Compound 24b, (2S)-N-((3-Fluoropyridin-2-yl)methyl)-2′,3′-dihydrospiro[cyclopropane-1,1′-inden]-2-amine] | 470 ± 20 nM | – | – | – | fold reduction in LSD1 inhibitory potency vs 23a, 23b [2]: ≥ 4 fold |
| N[C@@H]1CC12CCc1cc(-c3ccccc3)ccc12 (stereo in doubt) [Compound 28a, (2R)-5′-phenyl-2′,3′-dihydrospiro[cyclopropane-1,1′-inden]-2-amine hydrochloride] | 100 ± 10 nM | – | – | 94000 nM | IC50 (MAO-B; MAO-B IC50): 170 nM; IC50 (MAO-A [3]; MAO-A IC50): 460 nM |
| Cl.N[C@@H]1CC12CCc1cc(-c3ccc(F)cc3)ccc12 (stereo in doubt) [Compound 29a, (2R)-5′-(4-Fluorophenyl)-2′,3′-dihydrospiro[cyclopropane-1,1′-inden]-2-amine hydrochloride] | 300 ± 10 nM | – | – | – | fold reduction in LSD1 inhibitory potency vs 28a, 28b [2]: approximately 3 fold |
| Cl.N[C@H]1CC12CCc1cc(-c3ccc(F)cc3)ccc12 (stereo in doubt) [Compound 29b, (2S)-5′-(4-Fluorophenyl)-2′,3′-dihydrospiro[cyclopropane-1,1′-inden]-2-amine hydrochloride] | 6000 ± 800 nM | – | – | – | fold reduction in LSD1 inhibitory potency vs 28a, 28b [2]: approximately 3 fold |
| COc1ccc(F)cc1CN[C@@H]1CC12CCc1cc(-c3ccccc3)ccc12 (stereo in doubt) [Compound 30a, (2R)-N-(5-Fluoro-2-methoxybenzyl)-5′-phenyl-2′,3′-dihydrospiro[cyclopropane-1,1′-inden]-2-amine] | 1700 ± 100 nM | – | – | – | LSD1 IC50 level in words [2]: single digit micromolar range |
| COc1ccc(F)cc1CN[C@H]1CC12CCc1cc(-c3ccccc3)ccc12 (stereo in doubt) [Compound 30b, (2S)-N-(5-Fluoro-2-methoxybenzyl)-5′-phenyl-2′,3′-dihydrospiro[cyclopropane-1,1′-inden]-2-amine] | 4400 ± 300 nM | – | – | – | LSD1 IC50 level in words [2]: single digit micromolar range |
| COc1ccc(CN[C@@H]2CC23CCc2cc(-c4ccccc4)ccc23)c(Cl)c1OC (stereo in doubt) [Compound 31a, (2R)-N-(2-Chloro-3,4-dimethoxybenzyl)-5′-phenyl-2′,3′-dihydrospiro[cyclopropane-1,1′-inden]-2-amine] | 8900 ± 1200 nM | – | – | – | LSD1 IC50 level in words [2]: single digit micromolar range |
| COc1ccc(F)cc1CN[C@@H]1CC12CCc1cc(-c3ccc(F)cc3)ccc12 (stereo in doubt) [Compound 32a, (2R)-N-(5-Fluoro-2-methoxybenzyl)-5′-(4-fluorophenyl)-2′,3′-dihydrospiro[cyclopropane-1,1′-inden]-2-amine] | 2600 ± 500 nM | – | – | – | LSD1 IC50 level in words [2]: single digit micromolar range |

From paper PMC9077246, “Novel spirocyclic tranylcypromine derivatives as lysine-specific demethylase 1 (LSD1) inhibitors” (RSC Advances, 2018)
